Literature values in patent US20080003608A1, “Highly Specific Polyclonal Antibodies of Individual Core Histone and Uses Thereof” (priority 2004, published 2008).

Target: T1, p300 (Homo sapiens, UniProt Q09472)
T1 construct: lane 3 curcumin (75 μM) treated cells, lane 4, curcumin (100 μM) treated cells; endogenous in cells
Details: reference (2)

T1 sequence (Q09472 whole entry, species assumed): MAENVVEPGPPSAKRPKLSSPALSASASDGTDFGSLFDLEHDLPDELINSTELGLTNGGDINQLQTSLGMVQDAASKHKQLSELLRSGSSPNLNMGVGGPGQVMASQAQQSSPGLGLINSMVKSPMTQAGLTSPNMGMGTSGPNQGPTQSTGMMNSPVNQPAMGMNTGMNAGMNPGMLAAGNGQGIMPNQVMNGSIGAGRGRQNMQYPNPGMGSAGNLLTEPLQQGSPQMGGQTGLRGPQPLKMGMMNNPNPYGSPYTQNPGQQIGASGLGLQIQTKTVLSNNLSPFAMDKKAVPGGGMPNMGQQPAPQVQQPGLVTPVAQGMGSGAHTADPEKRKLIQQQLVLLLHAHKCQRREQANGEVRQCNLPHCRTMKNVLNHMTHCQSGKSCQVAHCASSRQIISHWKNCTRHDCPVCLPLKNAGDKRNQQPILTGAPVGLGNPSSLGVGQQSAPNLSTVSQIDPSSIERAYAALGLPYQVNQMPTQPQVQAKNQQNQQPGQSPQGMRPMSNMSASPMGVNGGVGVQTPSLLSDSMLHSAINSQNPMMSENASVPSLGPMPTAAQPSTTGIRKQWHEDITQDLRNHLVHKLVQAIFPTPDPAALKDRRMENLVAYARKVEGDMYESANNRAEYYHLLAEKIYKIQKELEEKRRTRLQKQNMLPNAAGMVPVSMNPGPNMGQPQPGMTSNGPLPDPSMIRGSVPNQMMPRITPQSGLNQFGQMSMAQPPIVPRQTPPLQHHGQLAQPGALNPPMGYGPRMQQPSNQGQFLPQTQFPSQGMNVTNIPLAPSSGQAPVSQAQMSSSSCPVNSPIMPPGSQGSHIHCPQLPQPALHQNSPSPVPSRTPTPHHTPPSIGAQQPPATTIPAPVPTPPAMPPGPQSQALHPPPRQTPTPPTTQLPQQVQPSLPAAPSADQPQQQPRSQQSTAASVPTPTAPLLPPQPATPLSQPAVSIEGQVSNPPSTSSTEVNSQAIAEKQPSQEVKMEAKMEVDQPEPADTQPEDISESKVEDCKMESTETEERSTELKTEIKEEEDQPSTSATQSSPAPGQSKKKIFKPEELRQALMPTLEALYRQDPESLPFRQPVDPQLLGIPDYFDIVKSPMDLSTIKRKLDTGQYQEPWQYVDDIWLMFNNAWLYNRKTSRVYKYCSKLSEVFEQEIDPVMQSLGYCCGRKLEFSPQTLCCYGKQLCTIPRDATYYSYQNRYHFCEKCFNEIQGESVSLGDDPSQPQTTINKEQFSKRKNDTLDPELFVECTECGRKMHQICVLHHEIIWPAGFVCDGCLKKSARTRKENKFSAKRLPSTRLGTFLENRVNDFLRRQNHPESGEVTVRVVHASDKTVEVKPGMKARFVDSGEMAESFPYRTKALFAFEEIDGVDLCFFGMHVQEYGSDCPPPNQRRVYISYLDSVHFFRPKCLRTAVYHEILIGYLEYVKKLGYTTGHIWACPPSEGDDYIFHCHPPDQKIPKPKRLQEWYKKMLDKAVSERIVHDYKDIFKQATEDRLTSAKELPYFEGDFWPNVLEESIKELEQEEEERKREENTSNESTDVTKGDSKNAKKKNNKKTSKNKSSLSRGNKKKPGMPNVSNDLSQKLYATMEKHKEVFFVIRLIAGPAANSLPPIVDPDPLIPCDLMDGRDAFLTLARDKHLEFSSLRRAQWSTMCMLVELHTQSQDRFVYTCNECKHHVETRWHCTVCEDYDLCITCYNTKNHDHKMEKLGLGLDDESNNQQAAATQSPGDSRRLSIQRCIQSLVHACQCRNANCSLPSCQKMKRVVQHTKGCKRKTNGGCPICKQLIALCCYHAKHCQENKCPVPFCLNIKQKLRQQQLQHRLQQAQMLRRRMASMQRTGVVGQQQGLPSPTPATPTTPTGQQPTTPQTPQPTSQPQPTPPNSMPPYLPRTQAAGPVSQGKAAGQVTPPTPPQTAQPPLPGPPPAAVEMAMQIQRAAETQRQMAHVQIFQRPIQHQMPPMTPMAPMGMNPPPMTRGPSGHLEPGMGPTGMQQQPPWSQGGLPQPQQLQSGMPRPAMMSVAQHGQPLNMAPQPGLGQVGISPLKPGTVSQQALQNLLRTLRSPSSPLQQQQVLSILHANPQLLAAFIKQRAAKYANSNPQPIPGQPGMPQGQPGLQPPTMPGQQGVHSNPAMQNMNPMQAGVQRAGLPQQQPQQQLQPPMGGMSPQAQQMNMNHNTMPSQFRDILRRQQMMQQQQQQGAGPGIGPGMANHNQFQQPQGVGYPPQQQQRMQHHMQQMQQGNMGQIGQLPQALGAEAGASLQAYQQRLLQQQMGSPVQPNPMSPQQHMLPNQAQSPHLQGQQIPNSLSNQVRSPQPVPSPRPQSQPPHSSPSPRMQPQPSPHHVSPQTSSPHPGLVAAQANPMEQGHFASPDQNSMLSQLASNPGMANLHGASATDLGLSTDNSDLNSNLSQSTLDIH

- HAT inhibition: potent p300-specific HAT inhibitor
SMILES: COc1cc(/C=C/C(=O)CC(=O)/C=C/c2ccc(O)c(OC)c2)ccc1O [Curcumin]
